The values below come from patent publication US12263171B2, “7-, 8-, and 10-substituted amino triazolo quinazoline derivatives as adenosine receptor antagonists, pharmaceutical compositions and their use” (Merck Sharp & Dohme LLC, priority 2018, dated 2025).

In assay [1] the target is human A2a adenosine receptor (Homo sapiens (Human), UniProt P29274). Kind of assay: A2a receptor affinity radioligand binding assay ([3H] SCH58261, membranes from HEK293 or CHO cells). The note with it: unstarred values: radioligand binding. The gist of the method: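 Displacement of tritiated SCH58261 (working dilution 4 nM) from recombinant human A2a receptor membranes (HEK293 or CHO), 60 min at room temperature in Tris pH 7.4/MgCl2 buffer after 15–30 min compound preincubation. Scintillation counting after filtration; normalized percent effect fitted 4-parameter logistic for IC50.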
human A2a adenosine receptor, sequence (P29274 whole entry): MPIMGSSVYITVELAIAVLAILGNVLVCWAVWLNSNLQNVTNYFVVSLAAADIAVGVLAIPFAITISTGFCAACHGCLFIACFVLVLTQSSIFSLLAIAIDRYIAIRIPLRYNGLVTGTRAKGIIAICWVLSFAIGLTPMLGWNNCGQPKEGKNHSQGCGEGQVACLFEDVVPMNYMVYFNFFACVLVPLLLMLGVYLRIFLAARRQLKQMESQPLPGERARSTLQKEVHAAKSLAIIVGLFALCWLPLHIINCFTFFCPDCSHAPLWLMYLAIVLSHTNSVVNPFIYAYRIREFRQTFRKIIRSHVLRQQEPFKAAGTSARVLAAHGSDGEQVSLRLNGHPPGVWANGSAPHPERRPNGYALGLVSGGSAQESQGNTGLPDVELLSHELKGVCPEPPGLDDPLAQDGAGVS

The target in assay [2] is human A2b adenosine receptor (Homo sapiens (Human), UniProt P29275). Put plainly: A2B antagonism in cAMP cell-based assay (LANCE cAMP, HEK293 cells, 600 nM adenosine). The note with it: for pIC50: values marked *: cAMP cell-based assay. As to the method: Measurement of A2A and A2B Antagonism in cAMP Cell-Based Assay
human A2b adenosine receptor, sequence (P29275 whole entry): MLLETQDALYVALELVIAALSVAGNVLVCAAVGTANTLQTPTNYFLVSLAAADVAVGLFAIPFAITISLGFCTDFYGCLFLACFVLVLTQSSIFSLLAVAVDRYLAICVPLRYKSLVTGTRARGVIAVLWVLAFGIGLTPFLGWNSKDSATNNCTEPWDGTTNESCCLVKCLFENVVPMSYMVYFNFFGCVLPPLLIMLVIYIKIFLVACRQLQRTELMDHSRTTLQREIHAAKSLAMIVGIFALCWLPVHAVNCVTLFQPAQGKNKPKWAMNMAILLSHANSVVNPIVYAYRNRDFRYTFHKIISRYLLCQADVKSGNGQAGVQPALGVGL
All subsequent liquid additions were performed using a multichannel pipettor. […] After this time 5 μL of either 300 nM or 600 nM adenosine (Sigma Cat. No. A9251) for A2A and A2B respectively was added and incubated for 30 minutes at 37° C. and 5% CO2 in a humidified environment. At this time detection mix was prepared by combining the LANCE Eu-W8044 labeled streptavidin and. Biotin-cAMP in detection buffer according to the manufacturers protocol. […] Curve fitting of the percent effect data versus the log of compound concentration used a 4-parameter concentration response curve fitting algorithm to calculate IC50 values.
In general terms: TR-FRET usually uses a lanthanide donor and a delayed reading to cut background.

pIC50: −log10 of the molar value.

Consider `COc1cccc2c1nc(N)n1nc([C@@H]3CCCN(c4cnn(CC5(O)CCC5)c4C)C3)nc21` [Example 34, (R)-1-((4-(3-(5-amino-7-methoxy-[1,2,4]triazolo[1,5-c]quinazolin-2-yl)piperidin-1-yl)-5-methyl-1H-pyrazol-1-yl)methyl)cyclobutan-1-ol], for which the negative logarithm of the IC50 (pIC50) in assay [1] is 8.80; in assay [2] it was 6.66.

With `COc1cccc2c1nc(N)n1nc([C@@H]3CCCN(c4cnn(C5COC5)c4)C3)nc21` [Example 39, (R)-7-methoxy-2-(1-(1-(oxetan-3-yl)-1H-pyrazol-4-yl)piperidin-3-yl)-[1,2,4]triazolo[1,5-c]quinazolin-5-amine], the values for the pIC50 in assay [1] and in assay [2] were 8.60 and 7.53, respectively.

Regarding `CCC(O)(CC)Cn1cc(N2CCC[C@@H](c3nc4c5cccc(OC)c5nc(N)n4n3)C2)cn1` [Example 40], the pIC50 in assay [1] was 8.51; in assay [2], 7.71.

For `COc1cccc2c1nc(N)n1nc([C@@H]3CCCN(c4cnn(CC5(O)CCCC5)c4)C3)nc21` [Example 41, (R)-1-((4-(3-(5-amino-7-methoxy-[1,2,4]triazolo[1,5-c]quinazolin-2-yl)piperidin-1-yl)-1H-pyrazol-1-yl)methyl)cyclopentan-1-ol], the pIC50 was 9.10 in assay [1] and 7.65 in assay [2].

`COc1cccc2c1nc(N)n1nc([C@@H]3CCCN(c4ccn(CC(C)(C)O)n4)C3)nc21` [Example 63, (R)-1-(3-(3-(5-amino-7-methoxy-[1,2,4]triazolo[1,5-c]quinazolin-2-yl)piperidin-1-yl)-1H-pyrazol-1-yl)-2-methylpropan-2-ol]: the pIC50 in assay [1] was 8.70; in assay [2], 7.49.

As for `COc1cccc2c1nc(N)n1nc([C@@H]3CCCN(c4cc(C(F)(F)F)nn4C)C3)nc21` [Example 77, (R)-7-methoxy-2-(1-(1-methyl-3-(trifluoromethyl)-1H-pyrazol-5-yl)piperidin-3-yl)-[1,2,4]triazolo[1,5-c]quinazolin-5-amine], the pIC50 is 9.10 in assay [1] and 6.27 in assay [2].

As for `COc1cccc2c1nc(N)n1nc([C@@H]3CCCN(c4cc(C(F)(F)F)n(C)n4)C3)nc21` [Example 78, (R)-7-methoxy-2-(1-(1-methyl-5-(trifluoromethyl)-1H-pyrazol-3-yl)piperidin-3-yl)-[1,2,4]triazolo[1,5-c]quinazolin-5-amine], the negative-log IC50 (pIC50) in assay [1] was 8.48; in assay [2], 5.60.

Regarding `COc1cccc2c1nc(N)n1nc([C@@H]3CCCN(c4nnn(C)c4C)C3)nc21` [Example 79, (R)-2-(1-(1,5-dimethyl-1H-1,2,3-triazol-4-yl)piperidin-3-yl)-7-methoxy-[1,2,4]triazolo[1,5-c]quinazolin-5-amine], the pIC50 in assay [1] is 8.80; in assay [2] it was 6.84.

Turning to `COc1cccc2c1nc(N)n1nc([C@@H]3CCCN(c4ncc[nH]4)C3)nc21` [Example 80, (R)-2-(1-(1H-imidazol-2-yl)piperidin-3-yl)-7-methoxy-[1,2,4]triazolo[1,5-c]quinazolin-5-amine], the figures for the pIC50 in assay [1] and in assay [2] were 8.64 and 7.74, respectively.

`COc1cccc2c1nc(N)n1nc([C@@H]3CCCN(c4nnc(C)o4)C3)nc21` [Example 82, (R)-7-methoxy-2-(1-(5-methyl-1,3,4-oxadiazol-2-yl)piperidin-3-yl)-[1,2,4]triazolo[1,5-c]quinazolin-5-amine]: the pIC50 in assay [1] is 8.59; in assay [2], 6.26.

Consider `COc1cccc2c1nc(N)n1nc([C@@H]3CCCN(c4ncn(C)n4)C3)nc21` [Example 83, (R)-7-methoxy-2-(1-(1-methyl-1H-1,2,4-triazol-3-yl)piperidin-3-yl)-[1,2,4]triazolo[1,5-c]quinazolin-5-amine], for which the pIC50 in assay [1] is 9.10; in assay [2], 7.11.

As to `COc1cccc2c1nc(N)n1nc([C@@H]3CCCN(c4cnc(C5CC5)n4C)C3)nc21` [Example 84, (R)-2-(1-(2-cyclopropyl-1-methyl-1H-imidazol-5-yl)piperidin-3-yl)-7-methoxy-[1,2,4]triazolo[1,5-c]quinazolin-5-amine], the pIC50 in assay [1] is 8.80; in assay [2], 6.73.

`COc1cccc2c1nc(N)n1nc([C@@H]3CCCN(c4csc(C5CC5)n4)C3)nc21` [Example 85, (R)-2-(1-(2-cyclopropylthiazol-4-yl)piperidin-3-yl)-7-methoxy-[1,2,4]triazolo[1,5-c]quinazolin-5-amine]: the results for the negative-log IC50 (pIC50) in assay [1] and in assay [2] were 7.83 and 6.50, respectively.

Take `COc1cccc2c1nc(N)n1nc([C@@H]3CCCN(c4cncn4C)C3)nc21` [Example 86, (R)-7-methoxy-2-(1-(1-methyl-1H-imidazol-5-yl)piperidin-3-yl)-[1,2,4]triazolo[1,5-c]quinazolin-5-amine]: the results for the pIC50 in assay [1] and in assay [2] were 8.68 and 6.84, respectively.

As for `COc1cccc2c1nc(N)n1nc([C@@H]3CCCN(c4ccn(C(C)C)c(=O)c4)C3)nc21` [Example 89, (R)-4-(3-(5-amino-7-methoxy-[1,2,4]triazolo[1,5-c]quinazolin-2-yl)piperidin-1-yl)-1-isopropylpyridin-2(1H)-one], the pIC50 in assay [1] was 8.82; in assay [2], 6.20.

As to `COc1cccc2c1nc(N)n1nc([C@@H]3CCCN(c4cc(=O)n(C)c5ccccc45)C3)nc21` [Example 90, (R)-4-(3-(5-amino-7-methoxy-[1,2,4]triazolo[1,5-c]quinazolin-2-yl)piperidin-1-yl)-1-methylquinolin-2(1H)-one], the pIC50 in assay [1] was 8.72; in assay [2], 5.23.

With `CCn1ccc(N2CCC[C@@H](c3nc4c5cccc(OC)c5nc(N)n4n3)C2)cc1=O` [Example 91, (R)-4-(3-(5-amino-7-methoxy-[1,2,4]triazolo[1,5-c]quinazolin-2-yl)piperidin-1-yl)-1-ethylpyridin-2(1H)-one], the values for the negative-log IC50 (pIC50) in assay [1] and in assay [2] were 8.74 and 6.11, respectively.

As to `COc1cccc2c1nc(N)n1nc([C@@H]3CCCN(c4ccc(=O)n(CC(F)(F)F)c4C)C3)nc21` [Example 94, (R)-5-(3-(5-amino-7-methoxy-[1,2,4]triazolo[1,5-c]quinazolin-2-yl)piperidin-1-yl)-6-methyl-1-(2,2,2-trifluoroethyl)pyridin-2(1H)-one], the pIC50 in assay [1] is 8.62; in assay [2], 6.68.

`COc1cccc2c1nc(N)n1nc([C@@H]3CCCN(c4ccc(=O)n(C5CC5)c4)C3)nc21` [Example 95, (R)-5-(3-(5-amino-7-methoxy-[1,2,4]triazolo[1,5-c]quinazolin-2-yl)piperidin-1-yl)-1-cyclopropylpyridin-2(1H)-one]: the pIC50 was 8.64 in assay [1] and 7.23 in assay [2].

In the case of `COc1cccc2c1nc(N)n1nc([C@@H]3CCCN(c4ccc(=O)n(CC(F)(F)F)c4)C3)nc21` [Example 97, (R)-5-(3-(5-amino-7-methoxy-[1,2,4]triazolo[1,5-c]quinazolin-2-yl)piperidin-1-yl)-1-(2,2,2-trifluoroethyl)pyridin-2(1H)-one], the negative-log IC50 (pIC50) is 8.36 in assay [1] and 7.20 in assay [2].

In assay [1], `COc1cccc2c1nc(N)n1nc([C@@H]3CCCN(c4cnccc4C(F)(F)F)C3)nc21` [Example 108, (R)-7-methoxy-2-(1-(4-(trifluoromethyl)pyridin-3-yl)piperidin-3-yl)-[1,2,4]triazolo[1,5-c]quinazolin-5-amine] gave a pIC50 of 7.92. In addition, the “*A2B cAMP % inh. @ 10000 nM” value in assay [2] (@ 10000 nM, marked *) is recorded as 18% inh. @ 10000 nM*.

Consider `COc1cccc2c1nc(N)n1nc([C@@H]3CCCN(c4ncc(C(F)(F)F)cn4)C3)nc21` [Example 109, (R)-7-methoxy-2-(1-(5-(trifluoromethyl)pyrimidin-2-yl)piperidin-3-yl)-[1,2,4]triazolo[1,5-c]quinazolin-5-amine], for which the pIC50 in assay [1] was 7.28. For the same molecule, the “*A2B cAMP ^ % @ 10000 nM” value in assay [2] (@ 10000 nM, marked *, printed with ^ and without inh.) was 22% @ 10000 nM*.

Turning to `COc1cccc2c1nc(N)n1nc([C@@H]3CCCN(c4ncc(F)cn4)C3)nc21` [Example 110, (R)-2-(1-(5-fluoropyrimidin-2-yl)piperidin-3-yl)-7-methoxy-[1,2,4]triazolo[1,5-c]quinazolin-5-amine], the pIC50 in assay [1] is 8.66; in assay [2], 6.14.

As to `COc1cccc2c1nc(N)n1nc([C@@H]3CCCN(c4nccc(C(F)(F)F)n4)C3)nc21` [Example 111, (R)-7-methoxy-2-(1-(4-(trifluoromethyl)pyrimidin-2-yl)piperidin-3-yl)-[1,2,4]triazolo[1,5-c]quinazolin-5-amine], the pIC50 in assay [1] is 7.79. Moreover, the “*A2B cAMP % inh. @ 10000 nM” value in assay [2] (@ 10000 nM, marked *) is on record as 10% inh. @ 10000 nM*.

For `COc1cccc2c1nc(N)n1nc([C@@H]3CCCN(c4ccc(C(F)(F)F)nc4)C3)nc21` [Example 112, (R)-7-methoxy-2-(1-(6-(trifluoromethyl)pyridin-3-yl)piperidin-3-yl)-[1,2,4]triazolo[1,5-c]quinazolin-5-amine], the values for the negative logarithm of the IC50 (pIC50) in assay [1] and in assay [2] were 8.46 and 6.67, respectively.

Consider `COc1cccc2c1nc(N)n1nc([C@@H]3CCCN(c4cncc(F)c4)C3)nc21` [Example 113, (R)-2-(1-(5-fluoropyridin-3-yl)piperidin-3-yl)-7-methoxy-[1,2,4]triazolo[1,5-c]quinazolin-5-amine], for which the pIC50 in assay [1] was 9.22; in assay [2] it was 6.68.

In the case of `COc1cccc2c1nc(N)n1nc([C@@H]3CCCN(c4cccc(C(F)(F)F)c4)C3)nc21` [Example 114, (R)-7-methoxy-2-(1-(3-(trifluoromethyl)phenyl)piperidin-3-yl)-[1,2,4]triazolo[1,5-c]quinazolin-5-amine], the pIC50 in assay [1] is 8.77; in assay [2] it was 6.43.

As a reminder, the pIC50 is the negative decadic logarithm of the IC50, by convention in mol/L.
